Patent publication US6861390B2, “Derivatives of UK-2A” (priority 2001, dated 2005)

What was measured:
[1] = system: Leptosphaeria nodorum (LEPTNO); experiment: Glume Blotch of Wheat, whole plant 24 Hour Protectant (T2); conditions: Parastagonospora nodorum; wheat (cultivar Yuma), sprayed at 100 ppm, inoculated after 24 hours; read-out: T2 LEPTNO in vivo 1 Day Protectant, control of fungal infection
[2] = system: Phytophthora infestans (PHYTIN); experiment: whole plant or invertebrate; conditions: in Solanum lycopersicum, 24 h, read-out: T3 PHYTIN in vivo 1 Day Protectant, control of fungal infection
[3] = system: Erysiphe graminis (ERYSGT); experiment: Powdery Mildew of Wheat, whole plant 24 Hour Protectant (T1); conditions: Blumeria graminis, in Triticum aestivum, read-out: T1 ERYSGT in vivo 1 Day Protectant, control of fungal infection
[4] = system: Mycosphaerella graminicola (Septoria tritici, SEPTTR); experiment: microbe, parasite or virus in culture; assay type: cell-based; conditions: Zymoseptoria tritici, read-out: T11 SEPTTR in vitro Growth Inhibition
[5] = system: Rhizoctonia solani (RHIZSO); experiment: microbe, parasite or virus in culture; assay type: cell-based; conditions: read-out: T10 RHIZSO in vitro Growth Inhibition
[6] = system: Stagonospora nodorum (Leptosphaeria nodorum, LEPTNO); experiment: microbe, parasite or virus in culture; assay type: cell-based; conditions: Parastagonospora nodorum, read-out: T7 LEPTNO in vitro Growth Inhibition
[7] = system: Puccinia recondita (PUCCRT); experiment: Brown Rust of Wheat, whole plant 24 Hour Protectant (T5); conditions: wheat (cultivar Yuma), sprayed at 100 ppm, inoculated after 24 hours, read-out: T5 PUCCRT in vivo 1 Day Protectant, control of fungal infection
[8] = system: Magnaporthe grisea (Pyricularia oryzae, PYRIOR); experiment: microbe, parasite or virus in culture; assay type: cell-based; conditions: read-out: T9 PYRIOR in vitro Growth Inhibition
[9] = system: Phytophthora infestans (PHYTIN); experiment: microbe, parasite or virus in culture; assay type: cell-based; conditions: in Secale cereale, read-out: T8 PHYTIN in vitro Growth Inhibition
Ustilago maydis (USTIMA) = experiment: microbe, parasite or virus in culture; assay type: cell-based; conditions: Mycosarcoma maydis, read-out: T12 USTIMA in vitro Growth Inhibition
[10] = system: Septoria tritici (SEPTTR); experiment: Leaf Blotch of Wheat, whole plant 24 Hour Protectant (T6); conditions: Zymoseptoria tritici; wheat (cultivar Monon), sprayed at 100 ppm, inoculated after 24 hours; read-out: T6 SEPTTR in vivo 1 Day Protectant, control of fungal infection

| Compound | pest or weed control at 100 ppm [1] [%] | pest or weed control at 100 ppm [2] [%] | pest or weed control at 100 ppm [3] [%] | inhibition at 25 ppm [4] [%] | inhibition at 25 ppm [5] [%] | inhibition at 25 ppm [6] [%] | melting point [°C] | pest or weed control at 100 ppm [7] [%] | inhibition at 25 ppm [8] [%] | inhibition at 25 ppm [9] [%] | inhibition at 25 ppm (Ustilago maydis (USTIMA)) [%] | pest or weed control at 100 ppm [10] [%] |
| --- | --- | --- | --- | --- | --- | --- | --- | --- | --- | --- | --- | --- |
| COCOc1c(OC)ccnc1C(=O)N[C@H]1COC(=O)[C@H](Cc2ccccc2)[C@@H](OC(=O)C(C)C)[C@H](C)OC1=O [Compound 4] | 75 to 100 | < 25 | 25 to 74 | < 80 | < 80 | > 80 | 146 to 147 | 75 to 100 | > 80 | < 80 | < 80 |  |
| COc1ccnc(C(=O)N[C@H]2COC(=O)[C@H](Cc3ccccc3)[C@@H](OC(=O)C(C)C)[C@H](C)OC2=O)c1OCOCc1ccccc1 [Compound 10] | 75 to 100 | < 25 | < 25 | > 80 | < 80 | > 80 | 56 to 60 | 75 to 100 | < 80 | > 80 | < 80 |  |
| COc1ccnc(C(=O)N[C@H]2COC(=O)[C@H](Cc3ccccc3)[C@@H](OC(=O)C(C)C)[C@H](C)OC2=O)c1OCSC [Compound 18] | 75 to 100 | < 25 | < 25 | > 80 | > 80 | > 80 | 146 to 148 | 75 to 100 | > 80 | < 80 | < 80 |  |
| COc1ccnc(C(=O)N[C@H]2COC(=O)[C@H](Cc3ccccc3)[C@@H](OC(=O)C(C)C)[C@H](C)OC2=O)c1OCSc1ccccc1 [Compound 19] | 75 to 100 | < 25 | < 25 | > 80 | > 80 | > 80 | 133 to 135 | 75 to 100 | > 80 | < 80 | < 80 |  |
| COc1ccnc(C(=O)N[C@H]2COC(=O)[C@H](Cc3ccccc3)[C@@H](OCC(C)C)[C@H](C)OC2=O)c1OCOC(=O)C1CC1 [Compound 56] | 75 to 100 | < 25 | 75 to 100 | > 80 | < 80 | > 80 |  | 75 to 100 | > 80 | < 80 | < 80 | 75 to 100 |
| COCCOC(=O)OCOc1c(OC)ccnc1C(=O)N[C@H]1COC(=O)[C@H](Cc2ccccc2)[C@@H](OCC(C)C)[C@H](C)OC1=O [Compound 57] | 75 to 100 | < 25 | 75 to 100 | > 80 | < 80 | > 80 |  | 75 to 100 | > 80 | < 80 | > 80 | 75 to 100 |
| COCC(=O)OCOc1c(OC)ccnc1C(=O)N[C@H]1COC(=O)[C@H](Cc2ccccc2)[C@@H](OCC(C)C)[C@H](C)OC1=O [Compound 58] | 75 to 100 | < 25 | 75 to 100 | > 80 | < 80 | > 80 |  | 75 to 100 | > 80 | > 80 | > 80 | 75 to 100 |
| CCOCC(=O)OCOc1c(OC)ccnc1C(=O)N[C@H]1COC(=O)[C@H](Cc2ccccc2)[C@@H](OCC(C)C)[C@H](C)OC1=O [Compound 59] | 75 to 100 | < 25 | 75 to 100 | > 80 | < 80 | > 80 |  | 75 to 100 | > 80 | > 80 | > 80 | 75 to 100 |
| CCCO[C@H]1[C@H](C)OC(=O)[C@@H](NC(=O)c2nccc(OC)c2OCOC(=O)COCC)COC(=O)[C@@H]1Cc1ccccc1 [Compound 60] | 75 to 100 | < 25 | 75 to 100 | > 80 | < 80 | > 80 |  | 75 to 100 | > 80 | > 80 | > 80 | 75 to 100 |
| COc1ccnc(C(=O)N[C@H]2COC(=O)[C@H](Cc3ccccc3)[C@@H](OCC(C)C)[C@H](C)OC2=O)c1OCOC(=O)C1CCCC1 [Compound 61] | 75 to 100 | < 25 | 75 to 100 | > 80 | < 80 | > 80 |  | 75 to 100 | > 80 | < 80 | > 80 | 75 to 100 |
| CCCO[C@H]1[C@H](C)OC(=O)[C@@H](NC(=O)c2nccc(OC)c2OCOC(=O)C2CCCC2)COC(=O)[C@@H]1Cc1ccccc1 [Compound 62] | 75 to 100 | < 25 | 75 to 100 | > 80 | < 80 | > 80 |  | 75 to 100 | < 80 | < 80 | > 80 | 75 to 100 |
| CCCC(=O)OCOc1c(OC)ccnc1C(=O)N[C@H]1COC(=O)[C@H](Cc2ccccc2)[C@@H](OCC(C)C)[C@H](C)OC1=O [Compound 63] | 75 to 100 | < 25 | 75 to 100 | > 80 | < 80 | > 80 |  | 75 to 100 | > 80 | < 80 | < 80 | 75 to 100 |
| CCCO[C@H]1[C@H](C)OC(=O)[C@@H](NC(=O)c2nccc(OC)c2OCOC(=O)CCC)COC(=O)[C@@H]1Cc1ccccc1 [Compound 64] | 75 to 100 | < 25 | 75 to 100 | > 80 | < 80 | > 80 |  | 75 to 100 | > 80 | < 80 | < 80 | 75 to 100 |
| CCOCC(=O)OCOc1c(OC)ccnc1C(=O)N[C@H]1COC(=O)[C@H](Cc2ccccc2)[C@@H](OCSC)[C@H](C)OC1=O [Compound 72] | 75 to 100 | < 25 | 25 to 74 | > 80 | < 80 | > 80 |  | 75 to 100 | > 80 | < 80 | > 80 | 25 to 74 |
| COc1ccnc(C(=O)N[C@H]2COC(=O)[C@H](Cc3ccccc3)[C@@H](OCSC)[C@H](C)OC2=O)c1OCOC(=O)C1CCCC1 [Compound 73] | 75 to 100 | < 25 | 25 to 74 | > 80 | < 80 | > 80 |  | 75 to 100 | > 80 | < 80 | > 80 | 75 to 100 |
| COCCOCC(=O)OCOc1c(OC)ccnc1C(=O)N[C@H]1COC(=O)[C@H](Cc2ccccc2)[C@@H](OCSC)[C@H](C)OC1=O [Compound 74] | 75 to 100 | < 25 | 25 to 74 | > 80 | < 80 | > 80 |  | 75 to 100 | > 80 | < 80 | > 80 | 25 to 74 |
